Data reported in PMC12242667, “Attenuation of 6‑OHDA-Induced Neurotoxicity by 1,2,3-Triazole-Based Sulfonamides through SIRT1 Activity” (ACS Omega, 2025).

How the values were obtained:
[1] = test system: normal embryonic lung (MRC-5) cell line; assay: Cytotoxicity on MRC-5 cell line, MTT assay; format: cell-based; conditions: Homo sapiens, MRC5, MRC-5 cells, 48 h incubation
Experimental: Normal embryonic lung MRC-5 cells and neuroblastoma SH-SY5Y cells from the American Type Culture Collection (Manassas, VA, USA) were maintained in DMEM with 10% heat-inactivated FBS and 1% penicillin-streptomycin at 37 °C in humidified air containing 5% carbon dioxide.
Cytotoxicity of 1,2,3-triazole-based sulfonamides was evaluated by using a normal embryonic lung (MRC-5) cell line. The MRC-5 cells were cultured in 96-well microtiter plates (Corning Inc., NY, USA) at 5,000–20,000 cells/well and incubated for 24 h at 37 °C in humidified air containing 5% carbon dioxide. Subsequently, various concentrations of 1,2,3-triazole derivatives, doxorubicin (used as a positive control), and DMSO (used as a negative control) were added and incubated for an additional 48 h. MTT reagent (0.5 mg/mL in medium) was added for cell staining and incubated for 4 h. Then, the remaining formazan was dissolved in DMSO by sonication. The absorbance of the test wavelength of 550 nm and the reference wavelength of 650 nm was analyzed with a microplate reader (Molecular Devices, CA, USA). IC50 of each compound was determined as the concentration of the compound that inhibits cell growth by 50%.

[2] = test system: 6-OHDA-induced SH-SY5Y neuronal cells; assay: Neuroprotection: cell viability of 6-OHDA-induced SH-SY5Y cells, MTT assay; format: cell-based, Human; conditions: then 50 μM 6-OHDA 24 h
Experimental: Prior to investigations, 1.0 × 10^5 SH-SY5Y neuronal cells/mL were seeded into 96-well plates for 24 h. To determine the optimal concentration of 6-OHDA for inducing neurotoxicity, cells were seeded into 96-well plates for 24 h and treated with various concentrations of 6-OHDA ranging from 25 to 125 μM for another 24 h. For the evaluation of the cytotoxicity of 1,2,3-triazole-based sulfonamide derivatives on SH-SY5Y neuronal cells, the cells were treated with various concentrations (0.1–10 μM) of 1,2,3-triazole-based sulfonamide derivatives for 24 h.^29 To assess the neuroprotective activity of 1,2,3-triazole-based sulfonamide derivatives, the cells were pretreated with various concentrations (0.1–10 μM) of 1,2,3-triazole-based sulfonamide derivatives for 3 h before being treated with 50 μM of 6-OHDA for another 24 h. Cell viability was assessed by incubating with 5 mg/mL of MTT reagent for 3 h at 37 °C, followed by absorbance measurement at 570 nm using a microplate reader (Thermo Fisher Scientific Inc., MA, USA). The viability of SH-SY5Y cells at each concentration was analyzed as a percentage relative to the control group.

[3] = test system: 6-OHDA-induced SH-SY5Y neuronal cells; assay: Intracellular ROS production, H2DCFDA assay; format: cell-based; conditions: Homo sapiens, 5 μM pretreatment 3 h, then 50 μM 6-OHDA 24 h, relative to control
Experimental: ROS production in SH-SY5Y neuronal cells was investigated using H2DCFDA. 1.0 × 10^5 cells/mL of SH-SY5Y neuronal cells were seeded into 96-well plates for 24 h, and 5 μM of selected 1,2,3-triazole-based sulfonamide derivatives were pretreated for 3 h. Then, neurotoxicity of the cells were induced with 50 μM of 6-OHDA for another 24 h. The neuronal cells with 10 μM H2DCFDA were incubated for 30 min at 37 °C in the dark. The emission and excitation wavelengths of 528 nm and 485 nm, respectively, were measured by using a microplate reader. The measured ROS production was calculated as a percentage relative to the control group.

[4] = test system: 6-OHDA-induced SH-SY5Y neuronal cells; assay: Cellular leakage of LDH enzyme; format: cell-based, Human; conditions: 5 μM pretreatment 3 h, then 50 μM 6-OHDA 24 h, percentage of control
Experimental: Leakage of LDH, an enzyme commonly used as an assessment factor to evaluate cellular damage, was measured to determine the protective ability of the compounds against 6-OHDA-induced neuronal damage. 1.0 × 10^5 cells/mL of SH-SY5Y neuronal cells were seeded into 6-well plates for 24 h. The cells were pretreated with 5 μM of 1,2,3-triazole-based sulfonamide derivatives for 3 h before being treated with 50 μM of 6-OHDA for 24 h. The cell culture medium of SH-SY5Y cells was collected, and LDH leakage was evaluated using the LDH assay kit. In the presence of LDH, lactate is converted into pyruvate, resulting in an elevated level of NADH production, which is determined via the change in absorbance at 450 nm. LDH activity was calculated according to the manufacturer’s instructions and shown as a percentage of the control group.

[5] = target: T1, SIRT1 (Homo sapiens, UniProt Q96EB6); assay: SIRT1 deacetylase activity in SH-SY5Y cell lysate; format: cell-based; conditions: 5 μM pretreatment 3 h, then 50 μM 6-OHDA 24 h, relative to control
T1 construct: endogenous in cells; host or cells: SH-SY5Y
T1 sequence (Q96EB6 1-747): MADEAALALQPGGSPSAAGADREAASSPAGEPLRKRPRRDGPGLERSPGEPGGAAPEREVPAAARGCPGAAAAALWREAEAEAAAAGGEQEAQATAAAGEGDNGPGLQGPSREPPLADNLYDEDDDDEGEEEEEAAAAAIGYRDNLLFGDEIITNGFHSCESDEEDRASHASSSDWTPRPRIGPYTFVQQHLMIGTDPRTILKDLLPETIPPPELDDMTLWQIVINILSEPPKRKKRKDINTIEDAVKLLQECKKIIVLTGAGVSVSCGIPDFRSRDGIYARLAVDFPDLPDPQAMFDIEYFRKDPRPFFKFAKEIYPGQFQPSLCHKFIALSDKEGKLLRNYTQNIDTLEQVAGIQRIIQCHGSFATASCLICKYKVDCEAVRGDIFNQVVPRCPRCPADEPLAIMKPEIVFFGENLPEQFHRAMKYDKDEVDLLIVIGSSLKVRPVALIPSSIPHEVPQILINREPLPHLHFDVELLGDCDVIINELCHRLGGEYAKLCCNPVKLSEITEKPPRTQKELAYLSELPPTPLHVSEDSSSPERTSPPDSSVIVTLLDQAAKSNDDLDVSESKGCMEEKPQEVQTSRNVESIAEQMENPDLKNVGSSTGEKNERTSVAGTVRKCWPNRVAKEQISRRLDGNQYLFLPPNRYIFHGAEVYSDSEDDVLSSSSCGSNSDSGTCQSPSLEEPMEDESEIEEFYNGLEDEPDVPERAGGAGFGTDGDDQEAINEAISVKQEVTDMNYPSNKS
Experimental: SH-SY5Y neuronal cells at 1.0 × 10^5 cells/mL were seeded into 6-well plates for 24 h. Then, the cells were pretreated with 5 μM 1,2,3-triazole-based sulfonamide derivatives for 3 h before neurotoxicity was induced with 50 μM 6-OHDA for another 24 h. The cell culture medium was rinsed off with cold 1X PBS. The cells were incubated at 4 °C with 1X RIPA buffer containing a protease inhibitor for 20 min before being harvested using a cell scraper, followed by centrifugation at 12,000 rpm for 20 min. Protein concentrations were measured using the Bradford protein assay, and SIRT1 activity in the cells was determined following the manufacturer’s instructions. The increase in SIRT1 enzyme activity was measured by fluorescence intensity at an excitation wavelength of 340 nm and an emission wavelength of 445 nm. SIRT1 enzyme activity was statistically analyzed as a percentage relative to the control group.

SMILES	IC50 [1] [µM]	cell viability of 6-OHDA-induced cells ([2]; pretreatment 1 μM 3 h) [%]	cell viability of 6-OHDA-induced cells ([2]; pretreatment 5 μM 3 h) [%]	activity at 5 µM [3] [%]	LDH leakage (LDH activity) [4] [%]	activity at 5 µM [5] [%]
O=S(=O)(NCCc1ccccc1)c1ccc(-n2cc(-c3ccccc3)nn2)cc1 [1a]	103 ± 1.31					
O=S(=O)(c1ccc(-n2cc(COc3ccccc3)nn2)cc1)N1CCc2ccccc2C1 [1b]	59 ± 3.69					
O=c1ccc2ccc(OCc3cn(-c4cccc(S(=O)(=O)N5CCc6ccccc6C5)c4)nn3)cc2o1 [1c]	14.4 ± 0.34					
Cc1ccc(OCc2cn(-c3ccc(S(=O)(=O)NCCc4ccccc4)cc3)nn2)cc1 [2a]	89.4 ± 2.95	90.11 ± 5.567	89.25 ± 3.236	102 ± 4.74	109.8 ± 3.826	91.9 ± 1.45
Cc1ccc(OCc2cn(-c3ccc(S(=O)(=O)N4CCc5ccccc5C4)cc3)nn2)cc1 [2b]	70.4 ± 6.8					
O=c1cc(OCc2cn(-c3cccc(S(=O)(=O)N4CCc5ccccc5C4)c3)nn2)c2ccccc2o1 [2c]	> 97.2					
O=Cc1ccc(OCc2cn(-c3ccc(S(=O)(=O)NCCc4ccccc4)cc3)nn2)cc1 [3a]	> 108	85.36 ± 4.615	87.69 ± 4.276	103 ± 4.94	112.6 ± 2.585	92.5 ± 1.98
O=Cc1ccc(OCc2cn(-c3ccc(S(=O)(=O)N4CCc5ccccc5C4)cc3)nn2)cc1 [3b]	> 105	89.37 ± 4.597	90.41 ± 7.193	103 ± 5.8	115.6 ± 2.926	94.3 ± 3.28
COc1cc2c(cc1OC)CN(S(=O)(=O)c1cccc(-n3cc(COc4ccc5ccc(=O)oc5c4)nn3)c1)CC2 [3c]	> 87					
O=[N+]([O-])c1ccc(OCc2cn(-c3ccc(S(=O)(=O)NCCc4ccccc4)cc3)nn2)cc1 [4a]	80.4 ± 3.79	88.68 ± 3.959	85.48 ± 4.470	103 ± 5.15	113.3 ± 6.585	92.9 ± 3.19
